# Reference: patent US20050180954A1, “Drug for treating bone disorders” (priority 1995, published 2005)
# Key:
# [1] = test system: ovariectomized mice of ddy strain; test: Osteoporosis model mice (ovariectomy): dry bone weight of femur; format: in vivo, mouse
# Experimental: Female mice of ddy strain of 8 weeks old were divided into 5 groups and experiment was carried out. Bilateral ovariectomy was performed on the mice in 3 groups and sham operation alone was performed on the mice in 2 groups. Thereafter, the mice were raised with normal diet for 1 month, thereby making the state of osteoporosis in the ovariectomized groups. In this model, it is known that the mice become the state of osteoporosis 2 to 3 weeks after the ovariectomy (T. Hosaka et al., ANITEX, Vol. 5, 243, 1992; Miyaura, C. et al., J. Bone Mineral Res., 10, 1365, 1995). From the third weeks from the ovariectomy, murine IFN was subcutaneously administered (100 μl/head/time) once per day, totally 25 times. On Day 30 from the beginning of administration, under ether anesthesia, body weight was measured, blood was collected, and femur was collected and dry bone weight thereof was measured for each mouse.
# Drying of femur was performed as follows. That is, femur was fixed with 2 ml of 70% ethanol per one taken out femur at room temperature for 24 hours and then the attached muscles and connective tissues were carefully removed with a forceps and surgical knife with replaceable blade. After immersing the femur in fresh 70% ethanol for 72 hours at room temperature, the femur was dried in a hot wind-generating incubator (Koukensha Engineering. Co., Tokyo) at 55° C. for 24 hours. The weight of the dried bone was measured with an electronic force balance (Mettler AE50, Metteler Instrumente AG, Switzerland). Murine IFN to be administered was diluted to the desired concentration with physiological saline. During the test, urine of mice was collected with metabolic cage (KN-645, Natsumeseisakusho, Tokyo) and frozen to store. To one group subjected to the sham operation, physiological saline (Otsuka Pharmaceutical Co.) was administered, and to another group subjected to the sham operation, murine IFNβ was administered at a dose of 10^5 units/head/time (diluted with physiological saline when use). […]
# [2] = test system: MC3T3-E1 cells; test: Mineralization of murine osteoblasts, Von Kossa stain (in vitro multiple administration); format: cell-based, mouse; conditions: MC3T3-E1, twice administration, Von Kossa on Day 9
# Experimental: MC3T3-E1 cells were placed in each well in 24-well plates in an amount of 30,000 cells/well and cultured to confluency. The medium was removed and fresh α-MEM containing 10% JCS, 50 μg/ml of L-ascorbic acid and 10 mM β-glycerophosphate was added in an amount of 0.9 ml/well, followed by adding 0.1 ml/well of medium containing varying concentration of IFN. The medium was replaced with the medium containing the respective concentration of IFN every 4 days. On Day 9 from the first treatment with IFN, Von Kossa stain was performed to visualize the calcified foci.
substance,measurement,setting,value
"MuIFNβ: murine interferon β, Lot M-0034, prepared by Toray Industries, Inc. by genetic engineering technique",bone volume (dry bone weight of femur),"[1]; ovariectomized mice, 10^3 units/head/time s.c.",exhibited prevention effect against further loss in the bone volume
same,bone volume (dry bone weight of femur),"[1]; ovariectomized mice, 10^5 units/head/time s.c. once per day, 25 times, Day 30",recovered the normal level of bone volume
same,bone volume (dry bone weight of femur),"[1]; sham operation mice, 10^5 units/head/time s.c.",significant increase in the bone volume was not observed
same,number of calcified foci and intensity of staining,[2],dose dependently increased
